# Measured values published in patent US7271173B2, “Mixed kappa/mu opioids and uses thereof” (The McLean Hospital Corporation, priority 2002, dated 2007).
# Where two headings read alike, the source gives them in different places.
# Legend:
# [1] = molecular target: T1, human delta opioid receptor (Homo sapiens, UniProt P41143); assay: Radioligand binding, [3H]naltrindole (δ), CHO membranes
# T1 construct: expressed in transfected cells; host or cells: CHO cells, stably transfected
# Source text: (§1) Compounds can be characterized in radioligand receptor binding assays, using ligands that are specific for the mu, delta and kappa receptors. The binding assays may utilize guinea pig brain membranes or stably transfected Chinese Hamster Ovary (CHO) cells expressing each of the three opioid receptors. Membranes can be isolated from CHO cells that stably express either the human mu, delta or kappa opioid receptors. At approximately 80% confluence, the cells are harvested by the use of a cell scraper. The cells and media from the plates are centrifuged at 200×g for 10 mm at 4° C.; resuspended in 50 mM Tris-HCl, pH 7.5; homogenized by the use of a Polytron; centrifuged at 48,000×g for 20 mm at 4° C.; and resuspended in 50 mM Tris-HCl, pH 7.5, at a protein concentration of 5-10 mg/ml, as determined by the Bradford method. The membranes are stored frozen, at −80° C. until use.
# (§2) Cell membranes are incubated at 25° C. with the radiolabeled ligands in a final volume of 1 ml of 50 mM Tris-HCl, pH 7.5. […] Nonspecific binding is measured by inclusion of 1 μM naloxone. The binding can be terminated by filtering the samples through Schleicher & Scheull No. 32 glass fiber filters using a Brandel 48-well cell harvester. The filters are subsequently washed three times with 3 ml of cold 50 mM Tris-HCl, pH 7.5, and can be counted in 2 ml of Ecoscint A scintillation fluid. For [^3H]U69,593 binding, the filters are soaked in 0.1% polyethylenimine for at least 30 minutes before use. IC50 values can be calculated by a least squares fit to a logarithm-probit analysis. Ki values of unlabeled compounds are calculated from the equation Ki=(IC50)/1+S where S=(concentration of radioligand) (Kd of radioligand). Cheng and Prusoff, Biochem. Pharmacol. 22:3099 (1973). Alternatively, guinea pig brain membranes can be prepared and used as previously described in Neumeyer, et al., J. Med. Chem. 43:114 (2000).
# (§3) As described in Example 12, 0.5 milligrams of protein per sample was incubated with 12 different concentrations of the compounds in the presence of receptor-specific radioligands at 25° C. in a final volume of 1 mL (50 mM Tris-HCl buffer, pH 7.5). Nonspecific binding was determined using 10 μM naloxone. The data in Table 1 are the mean values SEM from three experiments performed in triplicate.
# as §3, with “Four 10-ketomorphinan compounds, see Table 2, were evaluated for their affinity and selectivity at the three opioid receptors. As” for “As”, “Table 2” for “Table 1”
# human mu opioid receptor = molecular target: T2, human mu opioid receptor (Homo sapiens, UniProt P35372); assay: Radioligand binding, [3H]DAMGO (μ), CHO membranes
# T2 construct: expressed in transfected cells; host or cells: CHO cells, stably transfected
# Source text: as §1, §2, §3
# as §3, with “Four 10-ketomorphinan compounds, see Table 2, were evaluated for their affinity and selectivity at the three opioid receptors. As” for “As”, “Table 2” for “Table 1”
# [2] = molecular target: T3, human kappa opioid receptor (Homo sapiens, UniProt P41145); assay: Radioligand binding, [3H]U69,593 (κ), CHO membranes; settings: for Selectivity δ:κ / Selectivity μ:κ: ratio of Ki values
# T3 construct: expressed in transfected cells; host or cells: CHO cells, stably transfected
# Source text: as §1, §2, §3
# as §3, with “Four 10-ketomorphinan compounds, see Table 2, were evaluated for their affinity and selectivity at the three opioid receptors. As” for “As”, “Table 2” for “Table 1”
# kappa receptor = molecular target: T4, kappa receptor (Homo sapiens, UniProt P41145); assay: [35S]GTPgammaS binding assay, kappa receptor; assay type: biochemical; settings: CHO membranes
# T4 construct: expressed in transfected cells; host or cells: CHO cell lines
# Procedure: (§4) Membranes from the CHO cell lines, expressing either the mu, delta or kappa receptor, are incubated with 12 concentrations of each opioid for 60 minutes at 30° C. in a final volume of 0.5 ml of assay buffer (50 mM Tris-HCl, 3 mM MgCl2, 0.2 mM EGTA, 100 mM NaCl, pH 7.5) containing 3 μM GDP and 0.08 nM [^35S]GTPgammaS. Basal binding can be determined in the presence of GDP and the absence of opioids, and nonspecific binding can be determined by including 10 μM unlabeled […]. The incubation can be terminated by filtration under vacuum through glass fiber filters, followed by three washes with 3 ml ice-cold 50 mM Tris-HCl, pH 7.5. Samples can be allowed to equilibrate overnight and can be counted in 2 ml Ecoscint A scintillation fluid for 2 minutes in a liquid scintillation counter.
# (§5) For [^35S]GTPgammaS binding assays, percent stimulation of [^35S]GTPgammaS binding is defined as [(opioid-stimulated binding-basal binding) basal binding]×100. Percent stimulation is plotted as a function of opioid concentration (log scale), and EC50 and Emax values are determined by linear regression analysis. All data is compared across conditions using ANOVA and non-paired two-tailed Student's tests.
# mu receptor = molecular target: T5, mu receptor (Homo sapiens, UniProt P35372); assay: [35S]GTPgammaS binding assay, mu receptor; assay type: biochemical; settings: CHO membranes
# T5 construct: expressed in transfected cells; host or cells: CHO cell lines
# Procedure: as §4, §5
# [3] = read-out: Ki (nM) ± SE [3H]Naltrindole (δ), Table 2, CHO membranes, 25° C., mean ± SEM of three experiments in triplicate
# [4] = Table 1, CHO membranes, 25° C., mean ± SEM of three experiments in triplicate
# [5] = Table 1, CHO membranes, 25° C., mean ± SEM of three experiments in triplicate, read-out: Ki (nM) ± SE [3H]U69,593 (κ)
# [6] = read-out: Ki (nM) ± SE [3H]Naltrindole (δ), Table 1, CHO membranes, 25° C., mean ± SEM of three experiments in triplicate
# [7] = read-out: Ki (nM) ± SE [3H]DAMGO (μ), Table 1, CHO membranes, 25° C., mean ± SEM of three experiments in triplicate
# T3 sequence (P41145 whole entry): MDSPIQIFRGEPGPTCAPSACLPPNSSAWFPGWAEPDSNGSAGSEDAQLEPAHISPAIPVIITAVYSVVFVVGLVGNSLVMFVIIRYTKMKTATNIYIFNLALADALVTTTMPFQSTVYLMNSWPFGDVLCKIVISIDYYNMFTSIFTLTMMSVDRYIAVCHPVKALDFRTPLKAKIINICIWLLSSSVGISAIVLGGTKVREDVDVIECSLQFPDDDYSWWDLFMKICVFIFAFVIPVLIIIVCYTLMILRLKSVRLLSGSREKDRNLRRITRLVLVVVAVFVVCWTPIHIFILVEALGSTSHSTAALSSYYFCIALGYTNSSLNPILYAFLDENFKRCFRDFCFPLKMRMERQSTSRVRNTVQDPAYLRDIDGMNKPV
# T4 sequence (P41145 whole entry): as above
# T1 sequence (P41143 whole entry): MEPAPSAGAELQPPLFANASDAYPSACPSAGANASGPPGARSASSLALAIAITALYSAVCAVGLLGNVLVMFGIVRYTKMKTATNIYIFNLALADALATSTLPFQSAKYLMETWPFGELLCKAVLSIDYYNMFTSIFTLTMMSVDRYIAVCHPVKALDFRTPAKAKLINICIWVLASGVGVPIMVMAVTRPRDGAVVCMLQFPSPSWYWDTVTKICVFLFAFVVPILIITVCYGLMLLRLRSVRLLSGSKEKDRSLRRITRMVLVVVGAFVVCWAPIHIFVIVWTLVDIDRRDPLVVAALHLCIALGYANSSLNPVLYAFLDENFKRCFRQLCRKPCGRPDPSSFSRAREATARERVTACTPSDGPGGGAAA
# T2 sequence (P35372 whole entry): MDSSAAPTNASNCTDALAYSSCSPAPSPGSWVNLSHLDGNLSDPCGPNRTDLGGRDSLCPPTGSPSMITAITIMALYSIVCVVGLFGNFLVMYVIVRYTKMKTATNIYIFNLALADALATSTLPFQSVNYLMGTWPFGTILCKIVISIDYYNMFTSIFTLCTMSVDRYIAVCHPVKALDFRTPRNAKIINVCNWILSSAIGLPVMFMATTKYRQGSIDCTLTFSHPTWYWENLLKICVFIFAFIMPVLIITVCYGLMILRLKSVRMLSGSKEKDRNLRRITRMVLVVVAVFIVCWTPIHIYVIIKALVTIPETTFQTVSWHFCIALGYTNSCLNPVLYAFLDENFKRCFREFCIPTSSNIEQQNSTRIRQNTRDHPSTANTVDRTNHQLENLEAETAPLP
# T5 sequence (P35372 whole entry): as above
SMILES,"Ki [1, 3] [nM]",Selectivity δ:κ ([2]; Table 2),Selectivity μ:κ ([2]; Table 2),Ki (human mu opioid receptor) [nM],Ki [2] [nM],"Ki [2, 5] [nM]",Selectivity δ:κ ([2]; Table 1),Selectivity μ:κ ([2]; Table 1),"Ki [1, 6] [nM]",Ki (human mu opioid receptor; [7]) [nM],other results
"O=C1c2ccc(O)cc2[C@@]23CCCC[C@H]2[C@@H]1N(CC1CCC1)CC3 [Compound 74, 3-Hydroxy-10-keto-N-cyclobutylmethylmorphinan]",260 ± 55,540,6.9,,,,,,,,"Ki (human mu opioid receptor; read-out: Ki (nM) ± SE [3H]DAMGO (μ), Table 2, CHO membranes, 25° C., mean ± SEM of three experiments in triplicate): 3.3 ± 0.26 nM; Ki ([2]; Table 2, CHO membranes, 25° C., mean ± SEM of three experiments in triplicate, read-out: Ki (nM) ± SE [3H]U69,593 (κ)): 0.48 ± 0.027 nM"
"O=C1c2ccc(O)cc2[C@@]23CCCC[C@H]2[C@@H]1N(CCc1ccccc1)CC3 [Compound 77, 3-Hydroxy-10-keto-N-(2-phenylethyl)morphinan]",9.7 ± 0.34,1.3,0.08,0.63 ± 0.07,7.7 ± 0.19,,,,,,
CN1CC[C@]23CCCC[C@H]2[C@H]1Cc1c3ccc2nc(N)sc12 [Compound 70],,,,,,6.4 ± 0.53,30,0.17,,,"Ki [1, 4]: 190 ± 9.7 nM; Ki (human mu opioid receptor; [4]): 1.1 ± 0.13 nM"
Nc1nc2cc3c(cc2s1)C[C@@H]1[C@@H]2CCCC[C@]32CCN1CC1CCC1 [Compound 72],,,,,,0.79 ± 0.02,290,9.0,230 ± 21,7.1 ± 0.47,"Efficacy (agonist, partial agonist, antagonist) at κ receptor (kappa receptor): κ agonist; Efficacy (agonist, partial agonist, antagonist) at μ receptor (mu receptor): weak agonist and antagonist activity"
"O=C1c2ccc(O)cc2[C@@]23CCCC[C@H]2[C@@H]1N(CCCF)CC3 [Compound 75, 3-Hydroxy-10-keto-N-(3-fluoropropyl)morphinan]",690 ± 171,,,20 ± 4.8,,,,,,,
Nc1nc2cc3c(cc2s1)C[C@@H]1[C@@H]2CCCC[C@]32CCN1CC1CC1 [Compound 71],,,,,,0.049 ± 0.0046,590,30,29 ± 2,1.5 ± 0.21,"Efficacy (agonist, partial agonist, antagonist) at κ receptor (kappa receptor): κ and μ agonist; Relative potency κ versus μ (kappa receptor): more potent at κ than at μ; Efficacy (agonist, partial agonist, antagonist) at μ receptor (mu receptor): κ and μ agonist"
"COCCN1CC[C@]23CCCC[C@H]2[C@H]1C(=O)c1ccc(O)cc13 [Compound 76, 3-Hydroxy-10-keto-N-(2-methoxyethyl)morphinan]",,590,5.3,90 ± 10,17 ± 0.6,,,,,,Ki [1]: > 10000 nM
CN1CC[C@]23CCCC[C@H]2[C@H]1Cc1cc2sc(N)nc2cc13 [Compound 69],,,,,,29,38,4.5,1100 ± 30,130 ± 5.8,
"C#CCN1CC[C@]23CCCC[C@H]2[C@H]1C(=O)c1ccc(O)cc13 [Compound 73, 3-Hydroxy-10-keto-N-propargylmorphinan]",2300 ± 190,38,3.2,190 ± 4.4,60 ± 1.7,,,,,,
